Results taken from the supplement of paper PMC10307832.

Legend:
Assay in all cases: relative viability (nuclei count vs DMSO), 5 days (fraction); higher = more cells survive
CAP-232 + Navitoclax = compound: C[C@H]([C@@H](C(=O)N)NC(=O)[C@@H]1CSSC[C@@H](C(=O)N[C@H](C(=O)N[C@@H](C(=O)N[C@H](C(=O)N1)CCCCN)CC2=CNC3=CC=CC=C32)CC4=CC=C(C=C4)O)NC(=O)[C@@H](CC5=CC=CC=C5)N)O [CAP-232] + CC1(C)CCC(c2ccc(Cl)cc2)=C(CN2CCN(c3ccc(C(=O)NS(=O)(=O)c4ccc(N[C@H](CCN5CCOCC5)CSc5ccccc5)c(S(=O)(=O)C(F)(F)F)c4)cc3)CC2)C1 [Navitoclax] (partner 0.5 µM)
How it was run: (§1)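 Relative viability is defined as nuclei in treated wells over nuclei in vehicle wells. Duplicate plates were run and medians reported. Lung cancer cell lines in 1536-well plates were dosed by pin tool one day after seeding, with one drug or with a fixed anchor-drug dose plus five library-drug doses (not always all listed) in √10 steps, and nuclei were counted after 5 days.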

CAP-232 + Foretinib = compound: C[C@H]([C@@H](C(=O)N)NC(=O)[C@@H]1CSSC[C@@H](C(=O)N[C@H](C(=O)N[C@@H](C(=O)N[C@H](C(=O)N1)CCCCN)CC2=CNC3=CC=CC=C32)CC4=CC=C(C=C4)O)NC(=O)[C@@H](CC5=CC=CC=C5)N)O [CAP-232] + COc1cc2c(Oc3ccc(NC(=O)C4(C(=O)Nc5ccc(F)cc5)CC4)cc3F)ccnc2cc1OCCCN1CCOCC1 [Foretinib] (partner 0.25 µM)
How it was run: as §1

CAP-232 + Tozasertib = compound: C[C@H]([C@@H](C(=O)N)NC(=O)[C@@H]1CSSC[C@@H](C(=O)N[C@H](C(=O)N[C@@H](C(=O)N[C@H](C(=O)N1)CCCCN)CC2=CNC3=CC=CC=C32)CC4=CC=C(C=C4)O)NC(=O)[C@@H](CC5=CC=CC=C5)N)O [CAP-232] + Cc1cc(Nc2cc(N3CCN(C)CC3)nc(Sc3ccc(NC(=O)C4CC4)cc3)n2)n[nH]1 [Tozasertib] (partner 0.1 µM)
How it was run: as §1

CAP-232 + Dasatinib = compound: C[C@H]([C@@H](C(=O)N)NC(=O)[C@@H]1CSSC[C@@H](C(=O)N[C@H](C(=O)N[C@@H](C(=O)N[C@H](C(=O)N1)CCCCN)CC2=CNC3=CC=CC=C32)CC4=CC=C(C=C4)O)NC(=O)[C@@H](CC5=CC=CC=C5)N)O [CAP-232] + Cc1nc(Nc2ncc(C(=O)Nc3c(C)cccc3Cl)s2)cc(N2CCN(CCO)CC2)n1 [Dasatinib] (partner 0.075 µM)
How it was run: as §1

CAP-232 + Decitabine = compound: C[C@H]([C@@H](C(=O)N)NC(=O)[C@@H]1CSSC[C@@H](C(=O)N[C@H](C(=O)N[C@@H](C(=O)N[C@H](C(=O)N1)CCCCN)CC2=CNC3=CC=CC=C32)CC4=CC=C(C=C4)O)NC(=O)[C@@H](CC5=CC=CC=C5)N)O [CAP-232] + Nc1ncn([C@H]2C[C@H](O)[C@@H](CO)O2)c(=O)n1 [Decitabine] (partner 2 µM)
How it was run: as §1

Row | Cell Line | relative viability (CAP-232 + Navitoclax; first compound 0.4 µM) | relative viability (CAP-232 + Navitoclax; first compound 1.265 µM) | relative viability (CAP-232 + Navitoclax; first compound 4 µM) | relative viability (CAP-232 + Navitoclax; first compound 12.65 µM) | relative viability (CAP-232 + Foretinib; first compound 0.4 µM) | relative viability (CAP-232 + Foretinib; first compound 1.265 µM) | relative viability (CAP-232 + Foretinib; first compound 4 µM) | relative viability (CAP-232 + Foretinib; first compound 12.65 µM) | relative viability (CAP-232 + Tozasertib; first compound 0.4 µM) | relative viability (CAP-232 + Tozasertib; first compound 1.265 µM) | relative viability (CAP-232 + Tozasertib; first compound 4 µM) | relative viability (CAP-232 + Tozasertib; first compound 12.65 µM) | relative viability (CAP-232 + Dasatinib; first compound 0.4 µM) | relative viability (CAP-232 + Dasatinib; first compound 1.265 µM) | relative viability (CAP-232 + Dasatinib; first compound 4 µM) | relative viability (CAP-232 + Dasatinib; first compound 12.65 µM) | relative viability (CAP-232 + Decitabine; first compound 0.4 µM) | relative viability (CAP-232 + Decitabine; first compound 1.265 µM) | relative viability (CAP-232 + Decitabine; first compound 4 µM) | relative viability (CAP-232 + Decitabine; first compound 12.65 µM)
1 | NCI-H1755 | 0.6 | 1.1 | 1.1 | 0.949 | 0.927 | 0.883 | 0.934 | 0.815 | 0.581 | 0.498 | 0.58 | 0.498 | 0.358 | 0.461 | 0.48 | 0.372 | 0.734 | 0.738 | 0.761 | 0.723
2 | NCI-H1793 | 0.412 | 0.346 | 0.329 | 0.361 | 0.678 | 0.761 | 0.639 | 0.725 | 0.375 | 0.355 | 0.486 | 0.356 | 0.382 | 0.365 | 0.393 | 0.367 | 0.473 | 0.406 | 0.389 | 0.494
3 | NCI-H1915 | 0.825 | 0.75 | 0.771 | 0.766 | 1.11 | 1.11 | 1.11 | 1.09 | 0.593 | 0.432 | 0.444 | 0.466 | 0.326 | 0.31 | 0.303 | 0.287 | 0.272 | 0.227 | 0.269 | 0.25
4 | NCI-H1944 | 1.06 | 1.01 | 1.04 | 0.98 | 0.849 | 0.862 | 0.906 | 0.882 | 0.245 | 0.253 | 0.27 | 0.263 | 0.215 | 0.197 | 0.21 | 0.182 | 0.426 | 0.424 | 0.363 | 0.424
5 | NCI-H1975 | 1.24 | 1.1 | 1.28 | 0.853 | 0.931 | 0.915 | 1.06 | 0.474 | 0.968 | 0.75 | 0.94 | 0.482 | 0.513 | 0.319 | 0.468 | 0.21 | 0.399 | 0.39 | 0.406 | 0.207
6 | NCI-H1993 | 0.961 | 0.864 | 1.15 | 0.907 | 0.804 | 0.775 | 0.829 | 0.757 | 0.621 | 0.569 | 0.664 | 0.582 | 0.619 | 0.539 | 0.682 | 0.558 | 0.569 | 0.676 | 0.608 | 0.559
7 | NCI-H2009 | 1.15 | 1.14 | 1.13 | 1.04 | 1.23 | 1.17 | 1.21 | 1.07 | 0.757 | 0.713 | 0.823 | 0.684 | 0.288 | 0.278 | 0.273 | 0.195 | 0.397 | 0.391 | 0.341 | 0.33
